Laboratory results from ChEMBL document CHEMBL5357077, “Synthesis and Biological Evaluation of β-Lactam Derivatives Targeting Speckle-Type POZ Protein (SPOP)” (ACS Med Chem Lett, 2024).
Active and inactive are the calls of the source. The rule behind the calls is not given here.

Key:
Speckle-type POZ protein [1] = target: T1, Speckle-type POZ protein (Homo sapiens, UniProt O43791); test: (§1) Inhibition of GST-tagged human SPOP MATH domain (28 to 166 residues) expressed in Escherichia coli BL21 CodonPlus (DE3)-RIPL cells using FITC-LACDEVTSTTSSSTA peptide as substrate assessed as inhibition of substrate binding to SPOP preincubated with compound for 30 mins followed by substrate addition and measured immediately by fluorescence polarization assay
T1 sequence (O43791 whole entry, the tested form may be a part): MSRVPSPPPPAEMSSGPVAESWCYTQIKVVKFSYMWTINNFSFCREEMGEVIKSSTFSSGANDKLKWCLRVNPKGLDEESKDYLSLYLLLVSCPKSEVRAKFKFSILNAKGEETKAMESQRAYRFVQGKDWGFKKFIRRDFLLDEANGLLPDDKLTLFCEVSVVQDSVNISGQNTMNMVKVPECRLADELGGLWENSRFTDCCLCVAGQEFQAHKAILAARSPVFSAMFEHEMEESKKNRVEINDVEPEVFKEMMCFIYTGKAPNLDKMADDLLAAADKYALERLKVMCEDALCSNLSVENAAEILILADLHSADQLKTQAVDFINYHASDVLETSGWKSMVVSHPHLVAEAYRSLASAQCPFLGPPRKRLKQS

Speckle-type POZ protein [2] = target: T1, Speckle-type POZ protein; test: as §1, with “Potency index, ratio of 230D7 IC50 to test compound IC50 for inhibition” for “Inhibition”
Speckle-type POZ protein [3] = target: T1, Speckle-type POZ protein; test: Binding affinity to GST-tagged human SPOP MATH domain (28 to 166 residues) expressed in Escherichia coli BL21 CodonPlus (DE3)-RIPL cells assessed as equilibrium dissociation constant by SPR analysis
Speckle-type POZ protein [4] = target: T1, Speckle-type POZ protein; test: Inhibition of GST-tagged human SPOP MATH domain (28 to 166 residues) expressed in Escherichia coli BL21 CodonPlus (DE3)-RIPL cells using Myc-DUSP7 as substrate assessed as disruption of SPOP binding to substrate at 1 to 40 uM incubated for 2 hrs by GST pull-down assay; conditions: dose 1-40 µM
Speckle-type POZ protein [5] = target: T1, Speckle-type POZ protein; test: Inhibition of GST-tagged human SPOP MATH domain (28 to 166 residues) expressed in Escherichia coli BL21 CodonPlus (DE3)-RIPL cells using Myc-PTEN as substrate assessed as disruption of SPOP binding to substrate at 1 to 40 uM incubated for 2 hrs by GST pull-down assay; conditions: dose 1-40 µM
786-0 [6] = test: Antiproliferative activity against human 786-0 cells assessed as inhibition of cell proliferation measured after 72 hrs by Celltiter Glo luminescent cell viability assay; type: functional, cell-based
HK-2 = test: Cytotoxicity against HK-2 cells assessed as inhibition of cell proliferation measured after 72 hrs by Celltiter Glo luminescent cell viability assay; type: toxicity, cell-based; conditions: human, hk-2, 72 h
OS-RC-2 = test: Inhibition of colony formation in human OS-RC-2 cells at 0.4 to 50 uM incubated for 10 to 14 days by crystal violet staining based imaging analysis; type: functional, cell-based; conditions: dose 0.4-50 µM, time 10-14 day
786-0 [7] = test: Inhibition of colony formation in human 786-0 cells at 0.4 to 50 uM incubated for 10 to 14 days by crystal violet staining based imaging analysis; type: functional, cell-based; conditions: dose 0.4-50 µM, time 10-14 day
A498 = test: Inhibition of colony formation in human A498 cells at 0.4 to 50 uM incubated for 10 to 14 days by crystal violet staining based imaging analysis; type: functional, cell-based; conditions: dose 0.4-50 µM, time 10-14 day
769-P = test: Inhibition of colony formation in human 769-P cells at 0.4 to 50 uM incubated for 10 to 14 days by crystal violet staining based imaging analysis; type: functional, cell-based; conditions: dose 0.4-50 µM, time 10-14 day

SMILES	IC50 (Speckle-type POZ protein [1]) [µM]	further results
C=CC1=C(C(=O)O)N2C(=O)[C@@H](NC(=O)c3ccc(C)o3)[C@H]2SC1	20.7	–
C=CC1=C(C(=O)O)N2C(=O)[C@@H](NC(=O)c3ccc(COc4ccccc4Cl)o3)[C@H]2SC1	> 100	–
CC1(C)S[C@@H]2[C@H](NC(=O)c3ccc(COc4ccc(Br)cc4Cl)o3)C(=O)N2[C@H]1C(=O)O	20.5	–
C=CC1=C(C(=O)O)N2C(=O)[C@@H](NC(=O)c3ccc(COc4cccnc4)o3)[C@H]2SC1	74.4	–
C=CC1=C(C(=O)O)N2C(=O)[C@@H](NC(=O)c3ccc(CCl)o3)[C@H]2SC1	0.58	Ratio IC50 (Speckle-type POZ protein [2]): 22; Kd (Speckle-type POZ protein [3]): 1.54 µM; inhibition (Speckle-type POZ protein [4]): Active; inhibition (Speckle-type POZ protein [5]): Active; Activity (786-0 [6]): Active; Activity (HK-2): Non-Toxic; inhibition (OS-RC-2): Active; inhibition (786-0 [7]): Active; inhibition (A498): Active; inhibition (769-P): Active
C=CC1=C(C(=O)O)N2C(=O)[C@@H](NC(=O)c3ccc(COCC)o3)[C@H]2SC1	> 100	–
C=CC1=C(C(=O)O)N2C(=O)[C@@H](NC(=O)c3ccc(COCc4ccc(Br)cc4Cl)o3)[C@H]2SC1	66	–
C=CC1=C(C(=O)O)N2C(=O)[C@@H](NC(=O)c3ccc(COc4ccc(Cl)cc4Br)o3)[C@H]2SC1	> 100	–
C=CC1=C(C(=O)O)N2C(=O)[C@@H](NC(=O)c3ccc(COc4ccccc4)o3)[C@H]2SC1	6.33	Ratio IC50 (Speckle-type POZ protein [2]): 2
CC1=C(C(=O)O)N2C(=O)[C@@H](NC(=O)c3ccc(COc4ccc(Br)cc4Cl)o3)[C@H]2SC1	> 100	–
O=C(O)C1=C(Cl)CS[C@@H]2[C@H](NC(=O)c3ccc(COc4ccc(Br)cc4Cl)o3)C(=O)N12	53.3	–
O=C(O)C1=CCS[C@@H]2[C@H](NC(=O)c3ccc(COc4ccc(Br)cc4Cl)o3)C(=O)N12	42.1	–
C=CC1=C(C(=O)O)N2C(=O)[C@@H](NC(=O)c3ccc(Br)o3)[C@H]2SC1	> 100	–
C=CC1=C(C(=O)O)N2C(=O)[C@@H](NC(=O)c3ccc(Cl)o3)[C@H]2SC1	> 100	–
C=CC1=C(C(=O)O)N2C(=O)[C@@H](NC(=O)c3ccc(COc4ccc(Br)cc4)o3)[C@H]2SC1	> 100	–
C=CC1=C(C(=O)O)N2C(=O)[C@@H](NC(=O)c3ccc(COc4c(C)cc(Br)cc4Cl)o3)[C@H]2SC1	> 100	–
Cc1nnc(SCC2=C(C(=O)O)N3C(=O)[C@@H](NC(=O)c4ccc(COc5ccc(Br)cc5Cl)o4)[C@H]3SC2)s1	32.3	–
C[C@H]1[C@H](NC(=O)c2ccc(COc3ccc(Br)cc3Cl)o2)C(=O)N1S(=O)(=O)O	> 100	–
C=CC1=C(C(=O)O)N2C(=O)[C@@H](NC(=O)c3ccco3)[C@H]2SC1	81.2	–
C=CC1=C(C(=O)O)N2C(=O)[C@@H](NC(=O)c3ccc(COc4ccc(Br)cc4Cl)o3)[C@H]2SC1	5.35	Ratio IC50 (Speckle-type POZ protein [2]): 3

SMILES	IC50 (Speckle-type POZ protein [1]) [µM]	further results
C=CC1=C(C(=O)O)N2C(=O)[C@@H](NC(=O)c3ccc(C(=O)OC)o3)[C@H]2SC1	> 100	–
C=CC1=C(C(=O)O)N2C(=O)[C@@H](NC(=O)c3cccc(COc4ccc(Br)cc4Cl)c3)[C@H]2SC1	30.1	–
COCC1=C(C(=O)O)N2C(=O)[C@@H](NC(=O)c3ccc(COc4ccc(Br)cc4Cl)o3)[C@H]2SC1	> 100	–
C=CC1=C(C(=O)O)N2C(=O)[C@@H](NC(=O)c3ccc(COc4ccc(F)cc4Cl)o3)[C@H]2SC1	98	–
C=CC1=C(C(=O)O)N2C(=O)[C@@H](NC(=O)c3ccc(COc4ccc(Br)cc4Cl)s3)[C@H]2SC1	15.1	–
C=CC1=C(C(=O)O)N2C(=O)[C@@H](NC(=O)c3ccc(COc4cccc(Cl)c4)o3)[C@H]2SC1	> 100	–
O=C(O)C1=C(CO)CS[C@@H]2[C@H](NC(=O)c3ccc(COc4ccc(Br)cc4Cl)o3)C(=O)N12	> 100	–
C/C=C/C1=C(C(=O)O)N2C(=O)[C@@H](NC(=O)c3ccc(COc4ccc(Br)cc4Cl)o3)[C@H]2SC1	52.6	–
C=CC1=C(C(=O)O)N2C(=O)[C@@H](NC(=O)c3ccc(CF)o3)[C@H]2SC1	20.9	–
C=CC1=C(C(=O)O)N2C(=O)[C@@H](NC(=O)c3ccc(C(=O)Nc4ccc(Br)cc4Cl)o3)[C@H]2SC1	52.1	–
C=CC1=C(C(=O)O)N2C(=O)[C@@H](NC(=O)c3ccc(COc4ccc(C#N)cc4Cl)o3)[C@H]2SC1	11.7	–
C=CC1=C(C(=O)O)N2C(=O)[C@@H](NC(=O)c3ccc(CBr)o3)[C@H]2SC1	> 100	–
C=CC1=C(C(=O)O)N2C(=O)[C@@H](NC(=O)c3ccc(CNc4ccc(Br)cc4Cl)o3)[C@H]2SC1	> 100	–
C=CC1=C(C(=O)O)N2C(=O)[C@@H](NC(=O)c3ccc(COC)o3)[C@H]2SC1	26	–
CC(=O)OCC1=C(C(=O)O)N2C(=O)[C@@H](NC(=O)c3ccc(COc4ccc(Br)cc4Cl)o3)[C@H]2SC1	12.5	–
Cn1nnnc1SCC1=C(C(=O)O)N2C(=O)[C@@H](NC(=O)c3ccc(COc4ccc(Br)cc4Cl)o3)[C@H]2SC1	34.6	–
C=CC1=C(C(=O)O)N2C(=O)[C@@H](NC(=O)c3ccc(COc4ccc(F)cc4)o3)[C@H]2SC1	7.03	–
C=CC1=C(C(=O)O)N2C(=O)[C@@H](NC(=O)c3ccc(CO)o3)[C@H]2SC1	> 100	–
C=CC1=C(C(=O)O)N2C(=O)[C@@H](NC(=O)c3ccc(COc4ccc(C#N)cc4)o3)[C@H]2SC1	> 100	–
